The values that follow come from PubChem BioAssay AID743116 (Broad Institute, 2013).

The source made the active and inactive calls.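 Rule for the calls: active = compounds whose dose curve reaches a melting temperature rise of about 0.39 degC within the tested concentrations; inconclusive = flat curve with moderate shift, or unreliable curve fit; inactive = the rest.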

The target of one assay is Fibroblast growth factor 22 (Homo sapiens) (UniProt Q9HCT0). Nature of the assay: ligand stabilization of recombinant FGF22 – biophysical, SYPRO orange melt, qPCR instrument, dry powder, dose response (AID 743116). The following applies: Recombinant FGF22 thermal shift, SYPRO orange fluorescence.
Sequence of Fibroblast growth factor 22 (Homo sapiens) (Q9HCT0 whole entry, looked up): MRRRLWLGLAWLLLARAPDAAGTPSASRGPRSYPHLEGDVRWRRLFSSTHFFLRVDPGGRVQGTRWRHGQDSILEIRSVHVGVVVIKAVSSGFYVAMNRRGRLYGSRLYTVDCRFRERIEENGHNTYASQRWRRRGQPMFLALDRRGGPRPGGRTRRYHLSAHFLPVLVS
In the case of `COC(=O)C[C@H]1CC[C@@H]2[C@@H](COc3ccc(NC(=O)Nc4ccc(C#N)cc4)cc3C(=O)N2C)O1`, the AC50 is > 38 µM (inactive).
The same measure, in the same setting: with `Nc1cccc(-c2nc3ccc(C(=O)c4ccccc4)cc3[nH]2)c1` the figure was 29.5 µM; with `CCc1cc(-c2[nH]ncc2-c2ccc3c(c2)OCCO3)c(O)cc1O`, 24 µM; with `O=C(N/N=C/c1c[nH]c2ccccc12)c1cccc(O)c1`, 0.318 µM.
On to `O=C(N/N=C/c1c[nH]c2ccccc12)c1cccs1`, for which the AC50 was 5.49 µM.
As for `COc1cc(/C=N/NC(=O)c2cc3ccccc3[nH]2)ccc1O`, the AC50 is 10.1 µM.
For the molecule `O=C(Nc1ccc(S(=O)(=O)N2CCCC2)cc1)c1ccccc1`, the AC50 was 36.6 µM.
Same read-out and setting: next, `O=C(N/N=C/c1c[nH]c2ccccc12)c1cccc(Cl)c1`: 15.5 µM; `Nc1ccc(C(=O)N/N=C/c2c[nH]c3ccccc23)cc1`: 24.3 µM; `Cc1cc(NC(=O)Nc2ccc3c(ccn3C)c2)sn1`: 24.7 µM.
Still for that read-out and setting: with `CSc1ccc(/C=N/NC(=O)c2ccc3nc[nH]c3c2)cc1` the figure was 9.97 µM.

The same assay, now with this note: Recombinant FGF22 thermal shift, SYPRO orange fluorescence; at 19.5 µM (top of the series).
Consider `CC(=O)Nc1ccc(NC(=O)Nc2ccccc2)cc1`, for which the “melting temperature shift, positive = stabilization” value (from here on “melting temperature shift”) is “inactive”.
The same measure, in the same setting: with `CC(C)c1c(C(=O)N/N=C/c2c[nH]c3ccccc23)nnn1-c1nonc1N` the entry was “inactive”; with `Cc1[nH]c2ccccc2c1C(=O)NS(=O)(=O)Nc1ccc(Cl)cc1`, “inactive”.

Still in this assay, the particulars now being: Recombinant FGF22 thermal shift, SYPRO orange fluorescence; at 38 µM (top of the series).
Regarding `O=C(N/N=C/c1cccc(Oc2ccccc2)c1)c1cccc(O)c1`, the “melting temperature shift” value was “inactive”.
Same read-out and setting: next, `O=C(N/N=C/c1c[nH]c2ccccc12)c1ccc(O)c(O)c1`: “inactive”; `O=C(Nc1ccc(Cl)cc1)N[C@@H]1CC[C@@H](CCNS(=O)(=O)c2ccccc2F)O[C@H]1CO`: “inactive”.
`O=C(Nc1ccc(S(=O)(=O)N2CCCC2)cc1)c1cccs1`: the “melting temperature shift” value is “inactive”.
On the same count and under the same terms, next, `CCNC(=O)C[C@@H]1CC[C@H]2[C@H](COc3ccc(NC(=O)Nc4ccc(Cl)cc4)cc3C(=O)N2C)O1`: “inactive”.
As to `Cc1ccc(S(=O)(=O)N2C[C@H](O)COC[C@H]3O[C@H](CC(=O)NCc4ccc(Cl)c(Cl)c4)CC[C@@H]32)cc1`, the “melting temperature shift” value was “inactive”.
On the same count and under the same terms, with `O=C(Nc1ccc(S(=O)(=O)N2CCOCC2)cc1)c1ccc(F)cc1` the entry was “inactive”.
`CCN1C(=O)C(CC(=O)Nc2ccc(F)cc2)N(Cc2ccc3c(c2)OCO3)C1=S` (stereo not given): the “melting temperature shift” value was “inactive”.
As for `Cc1ccc(OCCCC(=O)Nc2ccc(S(=O)(=O)N3CCOCC3)cc2)cc1`, the “melting temperature shift” value was “inactive”.
Same read-out and setting: next, `COc1ccc(C)cc1NS(=O)(=O)c1ccc(NS(=O)(=O)c2ccc(NC(C)=O)cc2)cc1`: “inactive”; `Cc1[nH]c2ccc(C(=O)OCC(=O)Nc3cccc(S(N)(=O)=O)c3)cc2c1C`: “inactive”.
The same measure, in the same setting: next, `CN(Cc1c(C(=O)N/N=C/c2ccc(O)cc2)nnn1-c1nonc1N)c1ccccc1`: “inactive”; `COC(=O)C1=C(CS(=O)(=O)c2cc(OC)ccc2OC)NC(=O)NC1c1ccc(O)c(OC)c1` (stereo not given): “inactive”; `CC(=O)c1ccc(NC(=O)Nc2cccnc2)cc1`: “inactive”.
Same read-out and setting: next, `CC(=O)Nc1cccc(NC(=O)c2ccc3[nH]c(C)c(C)c3c2)c1`: “inactive”; `O=C(NCCc1c[nH]c2ccccc12)c1ccc(Cl)cc1`: “inactive”.
With `O=S(=O)(Nc1nnc(C(F)(F)F)s1)c1ccc(Cl)cc1`, the “melting temperature shift” value is “inactive”.
Turning to `O=S1(=O)N=C(N(Cc2cccs2)c2ccc(O)cc2)c2ccccc21`, the “melting temperature shift” value was “inactive”.
On the same count and under the same terms, next, `O=C(Nc1cc(Cl)cc(Cl)c1)N[C@@H]1CC[C@@H](CCNS(=O)(=O)c2cccc(F)c2)O[C@H]1CO`: “inactive”.
As to `O=C(O)Cc1ccc(NC(=O)c2ccc(Cl)c(Cl)c2)cc1`, the “melting temperature shift” value was “inactive”.
For the molecule `CCN1C/C(=C/c2cccs2)c2nc3ccccc3c(C(=O)O)c2C1`, the “melting temperature shift” value is “inactive”.
The same measure, in the same setting: next, `O=C(N/N=C/c1ccc(C(F)(F)F)cc1)c1ccc(O)cc1`: “inactive”.
On the same count and under the same terms, next, `Cc1ccn(-c2ccc(NC(=O)c3cccs3)cc2)n1`: “inactive”; `Clc1ccc(Nc2ccc(NCc3ccccc3)nn2)cc1`: “inactive”.
The same measure, in the same setting: next, `COc1ccc(-c2nc(-c3ccc(O)cc3O)cs2)cc1OC`: “inactive”; `COc1ccc(Nc2nc3ccc(OC)cc3s2)cc1`: “inactive”.
Turning to `O=C(Nc1cc(Cl)cc(Cl)c1)N[C@@H]1CC[C@@H](CCNS(=O)(=O)c2cccc(F)c2)O[C@@H]1CO`, the “melting temperature shift” value was “inactive”.
Same read-out and setting: with `Cc1cc(C(=O)N/N=C/c2c[nH]c3ccccc23)cs1` the entry was “inactive”; with `CCc1cc(-c2n[nH]c(C)c2-c2ccc3c(c2)OCCO3)c(O)cc1O`, “inactive”.
Same read-out and setting: next, `CCOc1cccc(C(=O)Nc2ccc3[nH]ncc3c2)c1`: “inactive”.
On the same count and under the same terms, next, `O=C(Nc1nccs1)C1CC(=O)N(c2ccc(F)cc2)C1` (stereo not given): “inactive”.
For the molecule `Cc1ccc(S(=O)(=O)N2C[C@@H](O)COC[C@@H]3O[C@@H](CC(=O)NCc4ccc(Cl)c(Cl)c4)CC[C@H]32)cc1`, the “melting temperature shift” value was “inactive”.
Take `CCCNC(=O)COC(=O)c1ccccc1C(=O)N(C)C1CCCCC1`: the “melting temperature shift” value was “inactive”.
Consider `CC(=O)Nc1cccc(C(=O)N/N=C/c2c[nH]c3ccccc23)c1`, for which the “melting temperature shift” value is “inactive”.
Still for that read-out and setting: next, `COC(=O)C[C@H]1CC[C@@H]2[C@@H](COc3ccc(NC(=O)Nc4cccc(C#N)c4)cc3C(=O)N2C)O1`: “inactive”.
The same measure, in the same setting: with `O=C(C[C@H]1CC[C@@H]2[C@H](COC[C@H](O)CN2S(=O)(=O)c2cccc(Cl)c2)O1)Nc1ccccc1` the entry was “inactive”.

Usually AC50 stands for the midpoint of the concentration-response curve, whichever way the signal moves.
